Measurements as given in patent US4150120A, “Ophthalmic” (Takeda Chemical Industries, Ltd., priority 1977, dated 1979).
Counter-ions that a name gives are not always drawn. Like-named read-outs stand apart in the source and are kept apart here.

How the values were obtained:
[1] = test system: progressive cataract (dogs); parameters: Evaluation: key to the marks not given beside the values; conditions: for Relapse: diagnosed after 3 months
[2] = test system: acute conjunctivitis (dogs); assay: Treatment of acute conjunctivitis (dogs) by ophthalmic instillation of 0.01% TRH tartrate; assay type: in vivo, dog
Description: The following examples illustrate the treatment of a case of acute catarrhal conjunctivitis and a case of drug-induced acute conjunctivitis, by ophthalmic instillation of TRH alone.

cataract (dogs) [3] = assay type: in vivo, dog
cataract (dogs) [4] = assay type: in vivo, dog; remark: listed apart in the source
Method: 2, 1977. (Treatment) Starting on Feb. 28, 1977 opthalmic instillations of a 0.01% aqueous solution of free TRH were given 3 times a day. (Treatment) Starting on Aug. […] The right eye was treated simultaneously with the aqueous solution of TRH tartrate alone.

[5] = Case 3, left eye, with dexamethasone and flavine-adenine dinucleotide, August 20

`NC(=O)[C@@H]1CCCN1C(=O)[C@H](Cc1cnc[nH]1)NC(=O)[C@@H]1CCC(=O)N1` [TRH tartrate, L-pyroglutamyl-L-histidyl-L-prolinamide] was tested, and the “day on which responses were elicited (generally, seven cases)” value ([1]; 0.01% aqueous solution, 3 instillations a day, eye lids pressed after instillation) was “third”, the “result of first course” value ([1]; Case 1, 2 instillations daily for 3 consecutive days, then discontinued) was “apparently satisfactory” and the “outcome of the case” value ([1]; Cases 1 and 2, 0.01% solution, 2 instillations daily) was “judged to have been cured”. For the same molecule, the Evaluation ([1]; case 7, serious total cataract (bilateral), 3 instillations daily for 4 days plus TRH.corson injections on 1st and 3rd days) was “++”, the Relapse ([1]; case 7, with adjunct TRH.corson injections) was “None” and the Evaluation ([1]; case 9, transient central cataract due to traumatic corneitis (left eye), 2 instillations daily) was “+++”. For the same molecule, the Relapse ([1]; cases 3-6 and 8) was “None”, the “reaction after each instillation (irritation to the conjunctiva)” value ([1]; dog, in vivo) was “closed the lids for a while, followed by several blinkings” and the “outcome of the case” value ([2]; Case 1, acute catarrhal conjunctivitis) was “judged to have been cured”. For the same molecule, the findings at examination ([2]; Case 1, acute catarrhal conjunctivitis, three instillations given every other day, 7th day after start) was “neither a hyperemia nor overflowing tears”, the findings at examination ([2]; Case 2, acute conjunctivitis due to irritation by insecticide, 2 instillations given every other day) was “the hyperemia had disappeared and the slightly dilated eye balls had become normal” and the “outcome of the case” value ([2]; Case 2, drug-induced acute conjunctivitis) was “cured”. For the same molecule, the pupillary reflex (cataract (dogs) [3]; Case 1, total cataract, 4 to 5 instillations daily from Feb. 2, on February 28) was “normal”, the “opacity of pupillary area” value (cataract (dogs) [3]; Case 1, on February 28) was “reduced opacity” and the “clarity of the cortex of lens (visual examination)” value (cataract (dogs) [3]; Case 1, on March 10) was “improved”. The “pannus, left eye” value (cataract (dogs) [4]; Case 3, left eye (immature cortical cataract and corneitis), with 0.02% dexamethasone and 0.05% flavine-adenine dinucleotide, 5 to 6 times daily, August 20) was “the pannus had disappeared”, the “ciliary congestion, left eye” value (cataract (dogs) [4]; [5]) was “the ciliary congestion persisted” and the “pupillary reflex and dilation, left eye” value (cataract (dogs) [4]; [5]) was “satisfactory”. The “lens clarity, right eye” value (cataract (dogs) [4]; Case 3, right eye, TRH tartrate solution alone, 5 to 6 times daily, August 20) was “increased clarity in the upper margin of the lens”, the “lens clarity, both eyes” value (cataract (dogs) [4]; Case 3, TRH tartrate solution alone from September 2, September 25) was “significantly increased clarity” and the “lens opacity, both eyes” value (cataract (dogs) [4]; Case 3, TRH tartrate solution and dexamethasone solution twice daily, September 2) was “only thinned opacities all over the lens”. For the same molecule, the “side effect at the times of instillation” value (cataract (dogs) [4]; dog, in vivo) was “No side effect was noted”.

`NC(=O)[C@@H]1CCCN1C(=O)[C@H](Cc1cnc[nH]1)NC(=O)[C@@H]1CCC(=O)N1` [TRH, L-pyroglutamyl-L-histidyl-L-prolinamide] was tested, and the “lens of right eye” value (cataract (dogs) [4]; Case 2, senile cataract, 0.01% aqueous solution of free TRH 3 times a day from Feb. 28, on April 23) was “the lens cortex of the right eye was remarkably clear”, the “lens of left eye” value (cataract (dogs) [4]; Case 2, 0.01% free TRH 3 times a day, on April 23) was “the circumstances of lens in the left eye could be delineated” and the “side effect during the instillation period” value (cataract (dogs) [4]; dog, in vivo) was “No side effect was observed”.
